Laboratory results: patent publication US9333272B2, “Fibrin binding peptide conjugates for diagnostic and therapeutic applications” (Bracco Imaging SpA, priority 2006, dated 2016)

Tests used:
[1] = molecular target: T1, fibrin in tumor, TRAMP prostate tumor (Mus musculus, UniProt E9PV24+Q8K0E8+Q8VCM7); test: In vivo MRI, transgenic adenocarcinoma mouse prostate model (TRAMP), Example 17; conditions: 100 μmol/kg iv; control
T1 construct: from tissue; host or cells: tumor stroma of living mice (BALB-neuT mammary tumor, TRAMP prostate tumor, Neuro-2a neuroblastoma in A/J mice)
T1 sequence (E9PV24 20-557 isoform E9PV24-2 limits assumed): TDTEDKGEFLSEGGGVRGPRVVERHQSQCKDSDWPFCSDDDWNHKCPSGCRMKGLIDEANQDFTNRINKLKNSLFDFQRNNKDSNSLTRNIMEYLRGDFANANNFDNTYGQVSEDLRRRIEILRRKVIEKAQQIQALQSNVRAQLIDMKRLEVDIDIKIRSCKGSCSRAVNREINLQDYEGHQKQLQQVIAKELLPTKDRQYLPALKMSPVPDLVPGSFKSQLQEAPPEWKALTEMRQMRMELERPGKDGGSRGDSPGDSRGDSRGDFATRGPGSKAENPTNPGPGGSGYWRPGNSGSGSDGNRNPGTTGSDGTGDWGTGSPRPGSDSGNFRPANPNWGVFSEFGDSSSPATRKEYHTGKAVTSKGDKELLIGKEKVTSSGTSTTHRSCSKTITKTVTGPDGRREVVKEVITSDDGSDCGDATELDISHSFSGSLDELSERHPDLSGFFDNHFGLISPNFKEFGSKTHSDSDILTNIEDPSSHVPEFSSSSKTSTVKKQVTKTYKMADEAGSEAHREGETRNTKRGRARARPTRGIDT
T1 sequence (Q8K0E8 35-481 limits assumed): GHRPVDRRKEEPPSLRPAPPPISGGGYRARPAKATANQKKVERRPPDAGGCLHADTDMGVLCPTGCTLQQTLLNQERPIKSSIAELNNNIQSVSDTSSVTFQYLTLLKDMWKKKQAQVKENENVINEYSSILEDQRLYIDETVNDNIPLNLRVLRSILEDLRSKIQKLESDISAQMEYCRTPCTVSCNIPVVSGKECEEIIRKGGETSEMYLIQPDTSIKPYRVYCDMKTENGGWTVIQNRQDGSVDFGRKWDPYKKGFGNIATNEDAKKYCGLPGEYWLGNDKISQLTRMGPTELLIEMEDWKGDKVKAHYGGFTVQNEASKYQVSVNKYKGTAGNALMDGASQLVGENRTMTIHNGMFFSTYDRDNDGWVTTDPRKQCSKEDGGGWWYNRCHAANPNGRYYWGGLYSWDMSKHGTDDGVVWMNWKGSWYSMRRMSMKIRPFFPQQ
T1 sequence (Q8VCM7 26-436): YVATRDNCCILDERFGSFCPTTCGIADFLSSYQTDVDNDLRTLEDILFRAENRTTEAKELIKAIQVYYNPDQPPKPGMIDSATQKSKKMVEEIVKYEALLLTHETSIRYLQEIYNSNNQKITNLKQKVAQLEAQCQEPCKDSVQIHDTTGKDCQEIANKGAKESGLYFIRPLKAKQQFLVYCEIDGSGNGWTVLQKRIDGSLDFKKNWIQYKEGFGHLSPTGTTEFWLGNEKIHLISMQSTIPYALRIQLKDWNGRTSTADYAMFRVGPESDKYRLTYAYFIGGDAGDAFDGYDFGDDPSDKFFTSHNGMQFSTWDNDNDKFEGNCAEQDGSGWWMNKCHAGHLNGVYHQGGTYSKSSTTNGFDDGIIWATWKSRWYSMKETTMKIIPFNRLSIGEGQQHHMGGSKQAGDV
Method: This test has been performed in a transgenic adenocarcinoma mouse prostate model (TRAMP) developed by introducing a PB promoter—SV40 T antigen fusion transgene (PB-Tag) into the germ line of C57BL/6 inbred mice.
Two TRAMP mice were treated with ProHance® at 100 μmol/kg iv (control), and the day after with Chelate Complex 2 or with Chelate Complex 5 at 25 μmol/kg iv. T1 weighted SE images were acquired pre- and post-contrast injection and the kinetic of enhancement in the tumor was followed up to 3 h post-test compound administration.

[2] = molecular target: T2, fibrin in tumor, mammary tumor mouse model (BALB-neuT) (Mus musculus, UniProt E9PV24+Q8K0E8+Q8VCM7); test: In vivo MRI, mammary tumor mouse model (BALB-neuT), Example 16; conditions: 100 μmol/kg; reference compound
T2 construct: from tissue; host or cells: tumor stroma of living mice (BALB-neuT mammary tumor, TRAMP prostate tumor, Neuro-2a neuroblastoma in A/J mice)
T2 sequence (E9PV24 20-557 isoform E9PV24-2 limits assumed): T1 sequence (E9PV24 20-557 isoform E9PV24-2 limits assumed)
T2 sequence (Q8K0E8 35-481 limits assumed): T1 sequence (Q8K0E8 35-481 limits assumed)
T2 sequence (Q8VCM7 26-436): T1 sequence (Q8VCM7 26-436)
Method: The test has been performed in a mammary tumor mouse model (BALB-neuT). Mice were treated with Chelate Complex 2 of the invention, 25 μmol/kg, injected iv, and with ProHance® at 100 μmol/kg. Signal enhancement of the tumor was followed up to 3 h after contrast administration.
Successive T1 weighted SE images were acquired pre- and post-injection of the test compounds and some examples are reported in FIGS. 6 and 7. Images are related to successive slices from the same mouse acquired at different time points post contrast. In particular, FIG. 6 includes images post-injection of chelate Complex 2 at 25 μmol/kg (arrows indicate tumor) and FIG. 7 includes analogous images post administration of ProHance®.

## CC(O)CN1CCN(CC(=O)[O-])CCN(CC(=O)[O-])CCN(CC(=O)[O-])CC1.[Gd+3] (centres unmarked) [ProHance®]
[1]
  Tumor signal enhancement (T1 weighted MRI), in words: very weak signal enhancement
[2]
  Tumor signal enhancement (T1 weighted MRI), in words: signal distribution only on the border and no signal enhancement inside the tumors after 55 min
